Test results as given in patent US11324750B2, “Compositions and methods for the treatment of severe acute respiratory syndrome coronavirus 2 (SARS-CoV-2) infection” (Children's Hospital Medical Center, priority 2020, dated 2022).

Tested on: severe COVID-19 patients
Assay: Randomized controlled trial, safety: adverse events up to day 28
Type: in vivo, human
Settings: for ALT increase, % patients / ALT increase, n patients / AST increase, % patients / AST increase, n patients / Acute heart failure, n patients / Alkaline phosphatase increase, % patients / Alkaline phosphatase increase, n patients / Anemia, % patients / Anemia, n patients / Chemical laboratory abnormalities, % patients / Chemical laboratory abnormalities, n patients / Decreased appetite, % patients / Decreased appetite, n patients / Dizziness, % patients / Dizziness, n patients / Headache, % patients / Headache, n patients / Hematological adverse events, % patients / Hematological adverse events, n patients / Hypercholesterolemia, % patients / Hypercholesterolemia, n patients / Hypertension, % patients / Hypertension, n patients / Hypertriglyceridemia, n patients / Hypoalbuminemia, % patients / Hypoalbuminemia, n patients / Hypocalcemia, % patients / Hypocalcemia, n patients / Hypochloremia, % patients / Hypochloremia, n patients / Hypokalemia, % patients / Hypokalemia, n patients / Lymphocytopenia, % patients / Lymphocytopenia, n patients / Nausea, % patients / Nausea, n patients / Neutrocytopenia, % patients / Neutrocytopenia, n patients / Rash, % patients / Rash, n patients / Secondary Infection, n patients / Sepsis, n patients / Serious adverse events, n patients / Shock, n patients / Thrombocytopenia, % patients / Thrombocytopenia, n patients / γ-GT increase, % patients / γ-GT increase, n patients / Adverse events, % patients / Adverse events, n patients: N = 20, through day 28; for Adverse events, % patients / Adverse events, n patients: line above headache, dizziness, rash, nausea, decreased appetite, hypertension
Description: As of the effective date of this application, no therapeutics have yet been proven effective for the treatment of severe COVID-19 with cytokine storm. Ruxolitinib, a potent and selective oral inhibitor of Janus kinase (JAK) 1 and JAK2, was proposed by Applicant to be beneficial in the treatment of cytokine storm. Applicant conducted a prospective, multicenter, single-blind, randomized controlled trial involving participants diagnosed as severe COVID-19 patients. The enrolled patients were randomly separated into two groups with a 1:1 allocation by an independent statistician in blocks of 4 for all 3 sites. Study number and treatment allocation codes were provided in sequentially numbered opaque envelops. Intervention group is treated with ongoing oral intake 5 mg of ruxolitinib (Jakafi®, Novartis Pharma Stein AG, Switzerland) twice a day based on the standard-of-care (SoC); the control group is treated with placebo plus SoC. The primary endpoint was the incidence of serious adverse events occurring up to 28 days and the time to clinical improvement. The secondary endpoint is the overall mortality at D28. This trial is registered at www.chictr.org.cn as ChiCTR-OPN-2000029580.
Procedures. The first day of randomization was designated as D0. The second and the fourth day after randomization were designated D1 and D3, respectively. Dx referred to the day when either disease progressed according to the Chinese management guideline for COVID-19 (version 5.0) or defined as a one-category increase on the seven-category scale. Dend was the day before discharge. The enrolled patients were randomly separated into two groups: the treatment group (group B) received oral intake of ruxolitinib (Jakafi®, Novartis Pharma Stein AG, Switzerland) 5 mg twice a day plus standard-of-care (SoC); the control group (group A) is treated with placebo twice a day with SoC. The SoC included supplemental oxygen, noninvasive and invasive ventilation, corticosteroid, antibiotic agents, vasopressor support, renal-replacement therapy, and extracorporeal membrane oxygenation (ECMO) etc. Safety was monitored daily by two independent senior physicians from the trial center. Adverse events were classified according to the National Cancer Institute Common Terminology Criteria for Adverse Events, version 5.0. Non-contrast enhanced chest CT examinations were performed on D0 and followed-up at least once within two weeks. Additional chest CT may be performed if the condition deteriorated. All CT images were reviewed using Picture archiving and communication system (PACS). The CT features of improvement were evaluated by two independent senior radiologists blindly, which should at least meet one of the following criteria: decreased presence of ground-glass opacities (GGO), decreased lung opacification, reduced density of consolidation or decreased pleural effusion with existence of fibrous stripes^29. Peripheral blood was taken from patients on D1, D3, Dx and/or Dend for the determination of viral load by one-step RT-ddPCR, SARS-CoV-2-specific IgM and IgG by paramagnetic particle chemiluminescent immunoassay (CLIA) and cytokines measurements by Luminex FlEXMAP 3D system. Every participant's data is filled in one case record form (CRF). All the CRF tables were inputted and saved by researchers into an electronic data capture system (EDCS) and validated by a trial staff, including demographics, medical history, daily clinical findings, oximetric measurements and laboratory data involving complete blood count, serum biochemical parameters and high sensitivity C-reactive protein (hsCRP) etc.
Outcomes. The primary safety endpoint was the incidence of serious adverse events occurring up to 28 days. Safety outcomes included adverse events that occurred during treatment, serious adverse events and premature discontinuation of treatment. […]

[1] = Grade 3-4, listed as ruxolitinib

N#CC[C@H](C1CCCC1)n1cc(-c2ncnc3[nH]ccc23)cn1 [Ruxolitinib, (3R)-3-cyclopentyl-3-[4-(7H-pyrrolo[2,3-d]pyrimidin-4-yl)pyrazol-1-yl]propanenitrile]
ALT increase, % patients (Any Grade): (35.0%) | ALT increase, n patients (Any Grade): 7 | AST increase, % patients (Any Grade): (15.0%) | AST increase, n patients (Any Grade): 3 | Acute heart failure, n patients (Any Grade): 0 | Alkaline phosphatase increase, % patients (Any Grade): (10.0%) | Alkaline phosphatase increase, n patients (Any Grade): 2 | Anemia, % patients (Any Grade): (55.0%) | Anemia, n patients (Any Grade): 11 | Chemical laboratory abnormalities, % patients (Any Grade): (50.0%) | Chemical laboratory abnormalities, n patients (Any Grade): 10 | Decreased appetite, % patients (Any Grade): (5.0%) | Decreased appetite, n patients (Any Grade): 1 | Dizziness, % patients (Any Grade): (10.0%) | Dizziness, n patients (Any Grade): 2 | Headache, % patients (Any Grade): (5.0%) | Headache, n patients (Any Grade): 1 | Hematological adverse events, % patients (Any Grade): (65.0%) | Hematological adverse events, n patients (Any Grade): 13 | Hypercholesterolemia, % patients (Any Grade): (20.0%) | Hypercholesterolemia, n patients (Any Grade): 4 | Hypertension, % patients (Any Grade): (5.0%) | Hypertension, n patients (Any Grade): 1 | Hypertriglyceridemia, n patients (Any Grade): 0 | Hypoalbuminemia, % patients (Any Grade): (5.0%) | Hypoalbuminemia, n patients (Any Grade): 1 | Hypocalcemia, % patients (Any Grade): (5.0%) | Hypocalcemia, n patients (Any Grade): 1 | Hypochloremia, % patients (Any Grade): (5.0%) | Hypochloremia, n patients (Any Grade): 1 | Hypokalemia, % patients (Any Grade): (5.0%) | Hypokalemia, n patients (Any Grade): 1 | Lymphocytopenia, % patients (Any Grade): (5.0%) | Lymphocytopenia, n patients (Any Grade): 1 | Nausea, % patients (Any Grade): (10.0%) | Nausea, n patients (Any Grade): 2 | Neutrocytopenia, % patients (Any Grade): (5.0%) | Neutrocytopenia, n patients (Any Grade): 1 | Rash, % patients (Any Grade): (10.0%) | Rash, n patients (Any Grade): 2 | Secondary Infection, n patients (Any Grade): 0 | Sepsis, n patients (Any Grade): 0 | Serious adverse events, n patients (Any Grade): 0 | Shock, n patients (Any Grade): 0 | Thrombocytopenia, % patients (Any Grade): (20.0%) | Thrombocytopenia, n patients (Any Grade): 4 | γ-GT increase, % patients (Any Grade): (10.0%) | γ-GT increase, n patients (Any Grade): 2 | Adverse events, % patients (Any Grade): (35.0%) | Adverse events, n patients (Any Grade): 7 | ALT increase, % patients (Grade 1-2): (35.0%) | ALT increase, n patients (Grade 1-2): 7 | AST increase, % patients (Grade 1-2): (15.0%) | AST increase, n patients (Grade 1-2): 3 | Acute heart failure, n patients (Grade 1-2): 0 | Alkaline phosphatase increase, % patients (Grade 1-2): (10.0%) | Alkaline phosphatase increase, n patients (Grade 1-2): 2 | Anemia, % patients (Grade 1-2): (55.0%) | Anemia, n patients (Grade 1-2): 11 | Chemical laboratory abnormalities, % patients (Grade 1-2): (50.0%) | Chemical laboratory abnormalities, n patients (Grade 1-2): 10 | Decreased appetite, % patients (Grade 1-2): (5.0%) | Decreased appetite, n patients (Grade 1-2): 1 | Dizziness, % patients (Grade 1-2): (10.0%) | Dizziness, n patients (Grade 1-2): 2 | Headache, % patients (Grade 1-2): (5.0%) | Headache, n patients (Grade 1-2): 1 | Hematological adverse events, % patients (Grade 1-2): (60.0%) | Hematological adverse events, n patients (Grade 1-2): 12 | Hypercholesterolemia, % patients (Grade 1-2): (20.0%) | Hypercholesterolemia, n patients (Grade 1-2): 4 | Hypertension, n patients (Grade 1-2): 0 | Hypertriglyceridemia, n patients (Grade 1-2): 0 | Hypoalbuminemia, % patients (Grade 1-2): (5.0%) | Hypoalbuminemia, n patients (Grade 1-2): 1 | Hypocalcemia, % patients (Grade 1-2): (5.0%) | Hypocalcemia, n patients (Grade 1-2): 1 | Hypochloremia, % patients (Grade 1-2): (5.0%) | Hypochloremia, n patients (Grade 1-2): 1 | Hypokalemia, % patients (Grade 1-2): (5.0%) | Hypokalemia, n patients (Grade 1-2): 1 | Lymphocytopenia, % patients (Grade 1-2): (5.0%) | Lymphocytopenia, n patients (Grade 1-2): 1 | Nausea, % patients (Grade 1-2): (10.0%) | Nausea, n patients (Grade 1-2): 2 | Neutrocytopenia, % patients (Grade 1-2): (5.0%) | Neutrocytopenia, n patients (Grade 1-2): 1 | Rash, % patients (Grade 1-2): (10.0%) | Rash, n patients (Grade 1-2): 2 | Secondary Infection, n patients (Grade 1-2): 0 | Sepsis, n patients (Grade 1-2): 0 | Serious adverse events, n patients (Grade 1-2): 0 | Shock, n patients (Grade 1-2): 0 | Thrombocytopenia, % patients (Grade 1-2): (20.0%) | Thrombocytopenia, n patients (Grade 1-2): 4 | γ-GT increase, % patients (Grade 1-2): (10.0%) | γ-GT increase, n patients (Grade 1-2): 2 | Adverse events, % patients (Grade 1-2): (35.0%) | Adverse events, n patients (Grade 1-2): 7 | ALT increase, n patients (Grade 3-4): 0 | AST increase, n patients (Grade 3-4): 0 | Acute heart failure, n patients (Grade 3-4): 0 | Alkaline phosphatase increase, n patients (Grade 3-4): 0 | Anemia, n patients (Grade 3-4): 0 | Chemical laboratory abnormalities, n patients (Grade 3-4): 0 | Decreased appetite, n patients (Grade 3-4): 0 | Dizziness, n patients (Grade 3-4): 0 | Headache, n patients (Grade 3-4): 0 | Hematological adverse events, % patients (Grade 3-4): 5.0% | Hematological adverse events, n patients (Grade 3-4): 1 | Hypercholesterolemia, n patients (Grade 3-4): 0 | Hypertension, % patients (Grade 3-4): 5.0% | Hypertension, n patients (Grade 3-4): 1 | Hypertriglyceridemia, n patients (Grade 3-4): 0 | Hypoalbuminemia, n patients (Grade 3-4): 0 | Hypocalcemia, n patients (Grade 3-4): 0 | Hypochloremia, n patients (Grade 3-4): 0 | Hypokalemia, n patients (Grade 3-4): 0 | Lymphocytopenia, % patients (Grade 3-4): 5.0% | Lymphocytopenia, n patients (Grade 3-4): 1 | Nausea, n patients (Grade 3-4): 0 | Neutrocytopenia, n patients (Grade 3-4): 0 | Rash, n patients (Grade 3-4): 0 | Secondary Infection, n patients (Grade 3-4): 0 | Sepsis, n patients (Grade 3-4): 0 | Serious adverse events, n patients (Grade 3-4): 0 | Shock, n patients (Grade 3-4): 0 | Thrombocytopenia, n patients (Grade 3-4): 0 | γ-GT increase, n patients (Grade 3-4): 0 | Hematological adverse events, n patients [1]: 2 | Hypertension, n patients [1]: One | Adverse events, n patients (Grade 3-4): 0 | Adverse events at grade 3-4, number of events (all ruxolitinib recipients, lymphocytopenia and hypertension, transient and reversible): two | Patients who reported adverse events, % (from randomization to D28, primary safety endpoint): 80% | Unexpected adverse events (primary safety endpoint): No significant unexpected adverse events | Tolerability (ruxolitinib with SoC treatment): well tolerated
